Data from patent US10273238B2, “Indazolones as modulators of TNF signaling” (AbbVie Inc., priority 2015, dated 2019).

Biological target: TNFα (Homo sapiens, UniProt P01375)
Assay: TNFα FP Competitive Binding Assay
Conditions: 20 nM TNFα trimer, 1 nM OregonGreen488 probe, read-out: TNF IC50
Experimental: TNFα FP Competitive Binding Assay
Prepare 1× Assay Buffer (Water with 47 mil HEPES, 47 mM NaCl, 0.9 mM EDTA, 0.0071% Triton X-100) by adding 25 mL of 1 M HEPES, 5 mL of 5 M NaCl, 1 mL of 0.5 M EDTA, and 375 μL of a 10% Triton X-100 stock to a fresh 500 mL bottle of water.
Prepare fresh Assay Mixture containing 20 nM TNFα trimer (60 nM protein) and 1 nM 2′,7′-difluoro-3′,6′-dihydroxy-N-(2-(2-(2-((4-(isoquinolin-8-yl)-3-(4-(isoquinolin-8-yl)phenethoxy)benzyl)oxy)ethoxy)ethoxy)ethyl)-3-oxo-3H- spiro[isobenzofuran-1,9′-xanthene]-5-carboxamide probe in 1× Assay Buffer.
Top concentration of compounds, 10 mM in DMSO, dispensed in rows A-O in columns 1 and 13. Compounds are serially diluted 1:3 with DMSO in columns 2-12 or 14-24 using a 16-channel Matrix pipettor. Plates stored at −20° C.
Top concentration, 5 mM in DMSO, of compounds placed in rows A-O in columns 1 and 13.
Compounds are serially diluted 1:3 with DMSO in columns 2-12 or 14-24. Compound solutions are dispensed into replicate assay plates at 410 nL per well. Plates stored at 4° C.
TNFα FP Competitive Binding Assay Protocol • 1. Compound plates warmed to rt. • 2. Fresh Assay Mixture is prepared. • 3. Assay Mixture (20 μL) is dispensed each well of 384 assay plates using a Thermo Multidrop Combi or 16-channel Matrix pipettor. If Manual 12-point 1:3 Dilution Plates are to be tested, Assay Mix is dispensed into empty plates. Discovery Preps 12-point 1:3 Dilution Plates already contain 410 nL compound solution in DMSO. • 4. For Manual 12-point 1:3 Dilution Plates, 0.7 μL is manually transferred using a 16-channel Matrix pipettor to replicate assay plates containing 20 μL Assay Mixture for a final top compound concentration of […] (3.4% DMSO). • 5. For Discovery Preps 12-point 1:3 Dilution Plates, 20 μL Assay Mixture added the 410 nL compound solution already in the plates yields a final top compound concentration of 100 μM (2.0% DMSO). • 6. Background subtraction controls are wells P1-P8 containing only Assay Buffer. The low % inhibition controls are wells P9-P16 containing only Assay Mix. The high % inhibition are wells P17-P24 containing only 1 nM 2′,7′-difluoro-3′,6′-dihydroxy-N-(2-(2-(2-((4-(isoquinolin-8-yl)-3-(4-(isoquinolin-8-yl)phenethoxy)benzyl)oxy)ethoxy)ethoxy)ethyl)-3-oxo-3H-spiro[isobenzofuran-1,9′-xanthene]-5-carboxamide probe in 1× Assay Buffer. • 7. Plates are incubated at rt for 18-24 h in […] (CO2 is off). • 8. Prior to reading the assay, the plates are placed in a dark cabinet to equilibrate at rt for one hour. • 9. Background-subtracted fluorescence polarization (mP) is measured using a PerkinElmer Envision plate reader. • 10. Raw data is entered into Assay Explorer and dose-response curves are generated using a variable slope curve.

TNFα, sequence (P01375 77-233 limits assumed): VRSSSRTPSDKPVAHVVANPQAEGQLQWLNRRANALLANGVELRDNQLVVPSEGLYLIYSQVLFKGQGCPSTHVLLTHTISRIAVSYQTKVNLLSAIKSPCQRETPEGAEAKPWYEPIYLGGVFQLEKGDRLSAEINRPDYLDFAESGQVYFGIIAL

SMILES	IC50
Cc1ccc(OC(F)F)c([C@H]2CCn3c(=O)c4ccc(-c5cnc(C(C)(C)O)nc5)cc4n32)c1 (single isomer, unassigned) [Example 15.2]	< 1000 nM
O=C1C[C@H](CNc2ncc(-c3ccc4c(=O)n5n(c4c3)[C@@H](c3ccccc3OC(F)F)CC5)cn2)CN1 (single isomer, unassigned) [Example 4.5]	1000 to 10000 nM
CC(C)(O)c1ncc(-c2ccc3c(c2)[C@H]2[C@@H](c4ccccc4OC(F)F)CCN2C3=O)cn1 (single isomer, unassigned) [Example 10.2]	1000 to 10000 nM
COC[C@H]1CCCN1c1ncc(-c2ccc3c(=O)n4n(c3c2)[C@@H](c2ccccc2OC(F)F)CC4)cn1 (single isomer, unassigned) [Example 1.5]	1000 to 10000 nM
CC(C)(O)c1ncc(-c2cc3c(cc2F)c(=O)n2n3[C@H](c3ccccc3OC(F)F)CC2)cn1 (single isomer, unassigned) [Example 12.2]	< 1000 nM
O=C1C[C@H](CNc2ncc(-c3ccc4c(=O)n5n(c4c3)[C@H](c3ccccc3OC(F)F)CC5)cn2)CN1 (single isomer, unassigned) [Example 4.6]	1000 to 10000 nM
O=c1c2ccc(-c3cnc(N4CCO[C@H](CO)C4)nc3)cc2n2n1CC[C@@H]2c1ccccc1OC(F)F (single isomer, unassigned) [Example 3.1]	< 1000 nM
O=c1c2ccc(-c3cnc(N4CCC(O)CC4)nc3)cc2n2n1CCCC2c1ccccc1OC(F)F (centres unmarked) [Example 7.2, 6-(2-(difluoromethoxy)phenyl)-3-(2-(4-hydroxypiperidin-1-yl)pyrimidin-5-yl)-8,9-dihydro-6H-pyridazino[1,2-a]indazol-11(7H)-one]	1000 to 10000 nM
O=C(O)C1CCN(c2ncc(-c3ccc4c(=O)n5n(c4c3)C(c3ccccc3OC(F)F)CC5)cn2)CC1 (centres unmarked) [Example 1.3, 1-(5-(3-(2-(difluoromethoxy)phenyl)-9-oxo-1,2,3,9-tetrahydropyrazolo[1,2-a]indazol-6-yl)pyrimidin-2-yl)piperidine-4-carboxylic acid]	1000 to 10000 nM
O=C1c2ccc(-c3cnc(N4CCOCC4)nc3)cc2[C@H]2[C@@H](c3ccccc3OC(F)F)CCN12 (single isomer, unassigned) [Example 9.2]	< 1000 nM
Cc1ccc(OC(F)F)c([C@@H]2CCn3c(=O)c4ccc(-c5cnc(C(C)(C)O)nc5)cc4n32)c1 [Example 14.2]	< 1000 nM
Cc1ccc(OC(F)F)c([C@H]2CCn3c(=O)c4cc(F)c(-c5cnc(C(C)(C)O)nc5)cc4n32)c1 (single isomer, unassigned) [Example 13.1]	< 1000 nM
COC[C@H]1CCCN1c1ncc(-c2ccc3c(=O)n4n(c3c2)[C@H](c2ccccc2OC(F)F)CC4)cn1 (single isomer, unassigned) [Example 1.4]	1000 to 10000 nM
O=c1c2ccc(-c3cnc(N4CCO[C@@H](CO)C4)nc3)cc2n2n1CC[C@H]2c1ccccc1OC(F)F (single isomer, unassigned) [Example 1.9]	< 1000 nM
O=c1c2ccc(-c3cnc(N4CCOCC4)nc3)cc2n2n1CCC2c1ccccc1 (centres unmarked) [Example 8.2, 6-(2-morpholinopyrimidin-5-yl)-3-phenyl-2,3-dihydropyrazolo[1,2-a]indazol-9(1H)-one]	1000 to 10000 nM
O=C1NC[C@@H]2CN(c3ncc(-c4ccc5c(=O)n6n(c5c4)[C@@H](c4ccccc4OC(F)F)CC6)cn3)CCN12 (single isomer, unassigned) [Example 6.2]	< 1000 nM
O=c1c2ccc(-c3cnc(N4CCOCC4)nc3)cc2n2n1CCCC2c1ccccc1OC(F)F (centres unmarked) [Example 7.1, 6-(2-(difluoromethoxy)phenyl)-3-(2-morpholinopyrimidin-5-yl)-8,9-dihydro-6H-pyridazino[1,2-a]indazol-11(7H)-one]	< 1000 nM
Cc1ccc(OC(F)F)c([C@H]2CCn3c(=O)c4ccc(-c5cnc(N6CCN7C(=O)NC[C@H]7C6)nc5)cc4n32)c1 (single isomer, unassigned) [Example 15.1]	< 1000 nM

SMILES	IC50
O=c1c2ccc(-c3cnc(N4CCOCC4)nc3)cc2n2n1CCC2c1ccccc1OC(F)F (centres unmarked) [Example 1, 3-(2-(Difluoromethoxy)phenyl)-6-(2-morpholinopyrimidin-5-yl)-2,3-dihydropyrazolo[1,2-a]indazol-9(1H)-one]	< 1000 nM
C[C@@H]1CN(c2ncc(-c3ccc4c(=O)n5n(c4c3)[C@@H](c3ccccc3OC(F)F)CC5)cn2)CCN1C(=O)CO (single isomer, unassigned) [Example 6.4]	< 1000 nM
CC(C)(O)c1ncc(-c2ccc3c(c2)[C@@H]2[C@H](c4ccccc4OC(F)F)CCN2C3=O)cn1 (single isomer, unassigned) [Example 10.1]	> 10000 nM
CC(C)(O)c1ncc(-c2cc3c(cc2F)c(=O)n2n3[C@@H](c3ccccc3OC(F)F)CC2)cn1 (single isomer, unassigned) [Example 12.1]	< 1000 nM
CC(=O)N1CCN(c2ncc(-c3ccc4c(=O)n5n(c4c3)[C@@H](c3ccccc3OC(F)F)CC5)cn2)C[C@H]1C (single isomer, unassigned) [Example 6.3]	< 1000 nM
Cc1ccc(OC(F)F)c([C@@H]2CCn3c(=O)c4cc(F)c(-c5cnc(C(C)(C)O)nc5)cc4n32)c1 (single isomer, unassigned) [Example 13.2]	< 1000 nM
COc1c(C#N)cccc1C1CCn2c(=O)c3ccc(-c4cnc(N5CCOCC5)nc4)cc3n21 (centres unmarked) [Example 8.4, 2-methoxy-3-(6-(2-morpholinopyrimidin-5-yl)-9-oxo-1,2,3,9-tetrahydropyrazolo[1,2-a]indazol-3-yl)benzonitrile]	1000 to 10000 nM
O=C1NC[C@H]2CN(c3ncc(-c4ccc5c(=O)n6n(c5c4)[C@@H](c4ccccc4OC(F)F)CC6)cn3)CCN12 (single isomer, unassigned) [Example 6.1]	< 1000 nM
CC(C)n1nccc1C1CCn2c(=O)c3ccc(-c4cnc(N5CCOCC5)nc4)cc3n21 (centres unmarked) [Example 8.5, 3-(1-isopropyl-1H-pyrazol-5-yl)-6-(2-morpholinopyrimidin-5-yl)-2,3-dihydropyrazolo[1,2-a]indazol-9(1H)-one]	> 10000 nM
O=c1c2ccc(-c3cnc(N4CCO[C@@H](CO)C4)nc3)cc2n2n1CC[C@@H]2c1ccccc1OC(F)F (single isomer, unassigned) [Example 1.8]	< 1000 nM
COc1ccc(C#N)cc1C1CCn2c(=O)c3ccc(-c4cnc(N5CCOCC5)nc4)cc3n21 (centres unmarked) [Example 8.3, 4-methoxy-3-(6-(2-morpholinopyrimidin-5-yl)-9-oxo-1,2,3,9-tetrahydropyrazolo[1,2-a]indazol-3-yl)benzonitrile]	1000 to 10000 nM
O=C1c2ccc(-c3cnc(N4CCOCC4)nc3)cc2[C@@H]2[C@H](c3ccccc3OC(F)F)CCN12 (single isomer, unassigned) [Example 9.1]	> 10000 nM
O=c1c2ccc(-c3cnc(N4CCC(O)CC4)nc3)cc2n2n1CCC2c1ccccc1OC(F)F (centres unmarked) [Example 4.2, 3-(2-(difluoromethoxy)phenyl)-6-(2-(4-hydroxypiperidin-1-yl)pyrimidin-5-yl)-2,3-dihydropyrazolo[1,2-c]indazol-9(1H)-one]	< 1000 nM
O=C1C[C@@H](CNc2ncc(-c3ccc4c(=O)n5n(c4c3)[C@@H](c3ccccc3OC(F)F)CC5)cn2)CN1 (single isomer, unassigned) [Example 4.3]	1000 to 10000 nM
O=C1C[C@@H](CNc2ncc(-c3ccc4c(=O)n5n(c4c3)[C@H](c3ccccc3OC(F)F)CC5)cn2)CN1 (single isomer, unassigned) [Example 4.4]	< 1000 nM
COC[C@H]1CCCN1c1ncc(-c2ccc3c(c2)[C@@H]2[C@H](c4ccccc4OC(F)F)CCN2C3=O)cn1 (single isomer, unassigned) [Example 10.3]	1000 to 10000 nM
CC(=O)N1CCN(c2ncc(-c3ccc4c(=O)n5n(c4c3)[C@@H](c3ccccc3OC(F)F)CC5)cn2)[C@H](C)C1 [Example 6.5, (R)-6-(2-((R)-4-acetyl-2-methylpiperazin-1-yl)pyrimidin-5-yl)-3-(2-(difluoromethoxy)phenyl)-2,3-dihydropyrazolo[1,2-a]indazol-9(1H)-one]	< 1000 nM
